{"source": "patent US20120225848A1", "about": "“Antagonists of GABA-B Receptors to Enhance Neuronal Function, Learning and Memory” (priority 2009, published 2012)", "key": {"[1]": {"test_system": "mRNAs for NGF and BDNF", "conditions": "Heese et al., 2000; cited from earlier work"}, "[2]": {"test_system": "dentate gyrus (DG) of hippocampal slices", "experiment": "LTP of evoked field potentials in dentate gyrus of hippocampal slices", "assay_type": "cell-based, mouse"}, "[3]": {"test_system": "dentate gyrus (DG) of hippocampal slices", "assay_type": "cell-based, mouse", "conditions": "1 μM"}, "[4]": {"test_system": "dentate gyrus (DG) of hippocampal slices", "experiment": "Paired-pulse depression of the population spike (feedback inhibition) in DG", "assay_type": "cell-based, mouse", "conditions": "1 μM, interstimulus interval 30 ms", "protocol": "Recording of evoked field potentials. A slice was transferred into the recording submerged chamber and superfused with ACSF at a constant rate of 2.5 ml/min at 32° C. Recording electrodes were made of borosilicate glass capillaries (1B150F, World Precision Instruments, Sarasota, Fla.) and were filled with 2M NaCl (resistance 0.3-0.5 MΩ). Monopolar stimulating electrodes were maid of Pt/Ir wires with diameter 25.4 μm (PTT0110, World Precision Instruments, Sarasota, Fla.) and had 100-μm-long exposed tips. […]\nThe amplitude of the population spike was measured as follows: 1) a line was drawn at the base of the population spike connecting the first and second peaks of the field response; 2) a second line was drawn at the peak of the population spike (i.e. at the peak of the downward deflection); 3) at the peak of the spike, a line was drawn vertically between these two lines to give the amplitude of the population spike. The magnitude of the field excitatory postsynaptic potential (fEPSP) was measured as the initial slope of the linear part of the fEPSP (latencies 0.1-0.9 ms). […]\nEffects of GABAB antagonists on pro-epileptic properties in Ts65Dn DG. […] We evaluated the effect of GABAB antagonists on feedback inhibition by measuring paired-pulse depression of the population spike amplitude (PS2/PS1). […]"}, "[5]": {"target": "GABAB receptor (Homo sapiens, UniProt Q9UBS5)", "sequence (Q9UBS5 20-961)": "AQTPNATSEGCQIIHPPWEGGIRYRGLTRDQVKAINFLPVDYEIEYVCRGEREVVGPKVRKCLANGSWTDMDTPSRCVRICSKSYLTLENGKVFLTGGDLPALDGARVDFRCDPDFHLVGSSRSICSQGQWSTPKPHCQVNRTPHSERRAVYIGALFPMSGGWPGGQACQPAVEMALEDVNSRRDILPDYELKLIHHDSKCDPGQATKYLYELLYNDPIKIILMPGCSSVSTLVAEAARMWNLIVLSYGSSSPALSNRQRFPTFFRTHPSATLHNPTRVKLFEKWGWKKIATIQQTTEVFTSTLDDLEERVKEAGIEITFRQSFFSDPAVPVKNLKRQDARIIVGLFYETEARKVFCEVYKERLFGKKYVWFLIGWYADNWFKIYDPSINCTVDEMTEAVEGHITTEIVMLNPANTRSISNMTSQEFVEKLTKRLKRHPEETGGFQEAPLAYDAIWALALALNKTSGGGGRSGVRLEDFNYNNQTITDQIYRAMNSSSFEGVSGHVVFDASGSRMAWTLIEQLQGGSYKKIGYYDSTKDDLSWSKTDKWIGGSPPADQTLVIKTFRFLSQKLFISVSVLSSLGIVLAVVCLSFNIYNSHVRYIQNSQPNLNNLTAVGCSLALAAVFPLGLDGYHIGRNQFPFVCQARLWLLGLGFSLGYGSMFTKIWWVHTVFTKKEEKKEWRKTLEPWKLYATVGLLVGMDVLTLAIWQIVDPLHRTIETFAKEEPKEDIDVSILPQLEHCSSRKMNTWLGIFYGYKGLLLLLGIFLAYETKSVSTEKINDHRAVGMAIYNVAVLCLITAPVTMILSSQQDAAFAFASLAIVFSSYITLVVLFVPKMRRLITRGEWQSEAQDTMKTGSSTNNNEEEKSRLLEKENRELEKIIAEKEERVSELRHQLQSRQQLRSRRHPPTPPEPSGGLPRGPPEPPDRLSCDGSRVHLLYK", "sequence (O75899 42-941 partner)": "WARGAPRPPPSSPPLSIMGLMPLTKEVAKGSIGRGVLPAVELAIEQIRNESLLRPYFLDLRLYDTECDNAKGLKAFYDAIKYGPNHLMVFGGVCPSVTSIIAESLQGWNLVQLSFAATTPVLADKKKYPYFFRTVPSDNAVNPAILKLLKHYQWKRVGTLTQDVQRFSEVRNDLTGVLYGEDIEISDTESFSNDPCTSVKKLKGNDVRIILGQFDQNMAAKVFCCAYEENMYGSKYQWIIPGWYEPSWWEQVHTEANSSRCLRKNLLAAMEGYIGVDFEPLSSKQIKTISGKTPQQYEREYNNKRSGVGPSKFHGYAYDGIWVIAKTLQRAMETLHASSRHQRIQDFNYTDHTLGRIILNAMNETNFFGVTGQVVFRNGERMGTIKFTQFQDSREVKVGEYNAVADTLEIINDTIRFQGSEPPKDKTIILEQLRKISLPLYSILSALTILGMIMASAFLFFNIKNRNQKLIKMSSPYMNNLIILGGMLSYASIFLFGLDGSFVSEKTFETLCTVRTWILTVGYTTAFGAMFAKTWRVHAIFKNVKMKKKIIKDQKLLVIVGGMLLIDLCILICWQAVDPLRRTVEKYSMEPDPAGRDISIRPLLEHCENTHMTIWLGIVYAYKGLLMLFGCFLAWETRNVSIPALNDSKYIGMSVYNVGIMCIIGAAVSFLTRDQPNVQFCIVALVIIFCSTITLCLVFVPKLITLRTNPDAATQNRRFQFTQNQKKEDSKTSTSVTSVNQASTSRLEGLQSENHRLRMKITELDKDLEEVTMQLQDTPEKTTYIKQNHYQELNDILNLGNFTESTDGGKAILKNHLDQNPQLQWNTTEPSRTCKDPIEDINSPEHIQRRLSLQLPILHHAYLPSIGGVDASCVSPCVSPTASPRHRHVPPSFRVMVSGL", "conditions": "1 μM; baclofen 5-10 μM; cited from earlier work"}, "[6]": {"target": "T1, Kir3.2-containing potassium channels (Homo sapiens, UniProt P48051)", "T1 sequence (P48051 1-423)": "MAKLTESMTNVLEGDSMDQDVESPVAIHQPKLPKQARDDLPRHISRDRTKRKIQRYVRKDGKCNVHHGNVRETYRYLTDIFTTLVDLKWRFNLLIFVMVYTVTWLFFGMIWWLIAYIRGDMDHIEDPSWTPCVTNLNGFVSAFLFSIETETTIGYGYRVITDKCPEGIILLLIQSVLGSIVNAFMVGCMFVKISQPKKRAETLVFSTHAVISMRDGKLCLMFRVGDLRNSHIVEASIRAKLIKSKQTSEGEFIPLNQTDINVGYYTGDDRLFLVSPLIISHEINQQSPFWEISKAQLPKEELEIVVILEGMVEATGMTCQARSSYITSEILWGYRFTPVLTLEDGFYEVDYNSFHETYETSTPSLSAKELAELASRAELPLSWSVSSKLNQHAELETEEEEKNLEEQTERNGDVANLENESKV", "conditions": "Kobayashi et al., 2004; read-out: IC50 for block of Kir3.2 channels; cited from earlier work"}, "[7]": {"test_system": "dentate gyrus (DG) of hippocampal slices", "experiment": "Spontaneous ictal bursts in high-potassium model of epilepsy in hippocampal slices", "assay_type": "cell-based, mouse", "conditions": "1 μM, extracellular potassium 7.5 mM", "description": "To evaluate more directly the potential effects of GABAB antagonists on epileptic properties of DG neural circuits, we examined spontaneous ictal bursts in hippocampal slices provoked by an increase in extracellular potassium. […] These changes were greater in Ts65Dn than in 2N slices (p<0.05). […] While the mechanism of the effect is yet to be refined, reduced electrochemical potential for potassium ions and the enhancement of feedback inhibition may both play a role."}, "[8]": {"test_system": "2N and Ts65Dn mice", "experiment": "Spontaneous locomotor activity in activity box", "assay_type": "in vivo, mouse", "conditions": "0.5 mg/kg i.p. daily, acute (1 week) and chronic (3 weeks)", "protocol": "(§1) Behavioral testing. All mice were exposed to the same series of behavioral tests starting at 2-2.5 months of age. Each mouse was handled for 10 min, twice a day, during the 7 days that preceded testing and for 3 days in between tests. Tests for spontaneous locomotor activity and open field were performed before the drug, during the acute (1 week), and during the chronic (3 weeks) phases of the drug administration. Novel object recognition task with a 24 hours delay was performed during the chronic phase (3 weeks) of the drug administration. All behavioral testing took place during the light cycle between 7:00 a.m. and 7:00 p.m. and was performed at room temperature (22° C.). On the day of testing, the mice were left in their home cages in the experimental room for 2 hours for habituation. To minimize olfactory cues from the previous trial, each apparatus was thoroughly cleaned with 10% ethanol after each animal. CGP55845 (0.5 mg/kg) or equivalent volume of saline was injected intraperitoneally once a day during 3 weeks. Body weight was measured weekly. […]\nSpontaneous locomotor activity. Spontaneous locomotor activity was monitored using square Plexiglas activity chambers (43.2×43.2×20 cm) and activity monitor software (Med Associates Activity Monitor, version 5.93.773). […] Distance moved, velocity, resting time, and times spent in pre-defined areas of the arena were recorded. […]"}, "[9]": {"target": "postsynaptic GABAB receptors (Homo sapiens, UniProt Q9UBS5)", "sequence (Q9UBS5 20-961)": "as the sequence (Q9UBS5 20-961) above", "sequence (O75899 42-941 partner)": "as the sequence (O75899 42-941 partner) above", "conditions": "Pozza et al., 1999; read-out: IC50 for postsynaptic receptors in hippocampal slices; cited from earlier work"}, "[10]": {"target": "presynaptic GABAB receptors", "sequence (Q9UBS5 20-961)": "as the sequence (Q9UBS5 20-961) above", "sequence (O75899 42-941 partner)": "as the sequence (O75899 42-941 partner) above", "conditions": "Pozza et al., 1999; read-out: IC50 for presynaptic receptors in hippocampal slices; cited from earlier work"}, "[11]": {"experiment": "Body weight during treatment", "assay_type": "in vivo, mouse", "conditions": "0.5 mg/kg i.p. once a day during 3 weeks; 2N and Ts65Dn mice", "protocol": "(§2) Behavioral testing. All mice were exposed to the same series of behavioral tests starting at 2-2.5 months of age. Each mouse was handled for 10 min, twice a day, during the 7 days that preceded testing and for 3 days in between tests. Tests for spontaneous locomotor activity and open field were performed before the drug, during the acute (1 week), and during the chronic (3 weeks) phases of the drug administration. Novel object recognition task with a 24 hours delay was performed during the chronic phase (3 weeks) of the drug administration. All behavioral testing took place during the light cycle between 7:00 a.m. and 7:00 p.m. and was performed at room temperature (22° C.). On the day of testing, the mice were left in their home cages in the experimental room for 2 hours for habituation. To minimize olfactory cues from the previous trial, each apparatus was thoroughly cleaned with 10% ethanol after each animal. CGP55845 (0.5 mg/kg) or equivalent volume of saline was injected intraperitoneally once a day during 3 weeks. Body weight was measured weekly. The body weight was lower in Ts65Dn than in 2N mice, and it was not affected by the treatment (Supplementary FIG. S6). All behavioral tests and procedures were performed by operators who were blind to the genotypes and drug treatment."}, "[12]": {"test_system": "2N and Ts65Dn mice", "experiment": "Open field activity", "assay_type": "in vivo, mouse", "conditions": "0.5 mg/kg i.p. daily, acute (1 week) and chronic (3 weeks)", "protocol": "as §1, with “On the day of testing, the mice were left in their home cages in the experimental room for 2 hours for habituation. To minimize olfactory cues from the previous trial, each apparatus was thoroughly cleaned with 10% ethanol after each animal. CGP55845 (0.5 mg/kg) or equivalent volume of saline was injected intraperitoneally once a day during 3 weeks.” left out\nOpen field activity. Open field activity was recorded with a video camera in the arena of white squared box (76×76×50 cm) and analyzed with an automated videotracking system EthoVision Pro 3.1 (Noldus Information Technology, Wageningen, The Netherlands). Mice were placed in the center of the open field arena under dim ambient light conditions and activity was monitored for 10 min in a single trial. […] Results were averaged for total distance traveled, number of entries and the time spent in the pre-determined areas (the center of the arena, the periphery, i.e. area extending 12 cm from the center, and the border, which included the four corners)."}, "[13]": {"test_system": "2N and Ts65Dn mice", "experiment": "Novel object recognition with 24 h delay", "assay_type": "in vivo, mouse", "conditions": "0.5 mg/kg i.p. daily, 3 weeks", "protocol": "as §2\nNovel object recognition. The Bevins and Besheer protocol (Bevins and Besheer, 2006) for two sample objects with one environment was used to study learning and memory with 24 hours delays in 2N and Ts65Dn mice. Before testing, mice were habituated in a black Plexiglas chamber (31×24×27 cm) during 10 min for 2 consecutive days under dim ambient light conditions. Activity of mice during the object recognition task was recorded with a video camera. Two objects (A and B) consistent with height and volume, but different in shape and appearance were used in this test. […] The amount of time spent exploring each object (nose sniffing and head orientation within <1.0 cm) was recorded and evaluated by an operator, who was blind to both the phenotype and the treatment. […]"}, "[14]": {"test_system": "Ts65Dn hippocampal LTP", "conditions": "in vitro system; Kleschevnikov 2004; cited from earlier work"}}}
{"molecule": "CCCCP(=O)(O)CCCN", "note": "[CGP36742]", "values": [{"measurement": "levels of mRNAs for NGF and BDNF", "setting": "[1]", "value": "increased"}]}
{"molecule": "CCOC(OCC)P(=O)(O)CCCNCc1ccc(Cl)c(Cl)c1", "note": "[CGP52432]", "values": [{"measurement": "effect on LTP", "setting": "[2]; 1.0 μM, Ts65Dn slices", "value": "enhanced LTP in the Ts65Dn DG"}, {"measurement": "NMDA receptor-mediated component of the tetanus-evoked field responses", "setting": "[3]", "value": "enhanced the NMDA receptor-mediated responses"}, {"measurement": "NMDA receptor-mediated component of the tetanus-evoked responses", "setting": "[3]", "value": "restored to 2N levels"}, {"measurement": "tetanus-evoked field responses", "setting": "[3]", "value": "significantly increased"}, {"measurement": "PS2/PS1 ratio", "setting": "[4]; 2N slices, baseline 1.09±0.18", "value": "0.93±0.25"}, {"measurement": "PS2/PS1 ratio", "setting": "[4]; Ts65Dn slices, baseline 0.71±0.16", "value": "0.59±0.17"}]}
{"molecule": "C[C@H](NC[C@H](O)CP(=O)(O)Cc1ccccc1)c1ccc(Cl)c(Cl)c1.Cl", "note": "[CGP 55845A]", "values": [{"measurement": "baclofen-induced postsynaptic hyperpolarization and depression of evoked IPSPs and EPSPs", "setting": "[5]", "value": "blocks"}]}
{"molecule": "CNCCC(Oc1ccc(C(F)(F)F)cc1)c1ccccc1", "note": "(stereo not drawn) [fluoxetine]", "values": [{"measurement": "effect on LTP", "setting": "[2]; 10 μM, Ts65Dn DG", "value": "enhanced LTP in the Ts65Dn DG"}, {"measurement": "IC50", "setting": "[6]", "value": "~10", "unit": "µM"}]}
{"molecule": "CGP55845", "values": [{"measurement": "effect on LTP", "setting": "[2]; 0.1 μM, Ts65Dn slices", "value": "enhanced LTP in Ts65Dn"}, {"measurement": "effect on LTP", "setting": "[2]; 1.0 μM, 2N slices", "value": "enhanced LTP in both Ts65Dn and 2N slices"}, {"measurement": "effect on LTP", "setting": "[2]; 1.0 μM, Ts65Dn slices", "value": "enhanced LTP in both Ts65Dn and 2N slices"}, {"measurement": "frequency of spontaneous ictal bursts", "setting": "[7]; 2N and Ts65Dn DG, p=0.8", "value": "did not affect"}, {"measurement": "amplitude of burst-associated field potentials", "setting": "[7]; change greater in Ts65Dn than 2N, p<0.01", "value": "significantly reduced"}, {"measurement": "spontaneous locomotor activity", "setting": "[8]", "value": "did not affect"}, {"measurement": "IC50", "setting": "[9]", "value": 0.11, "unit": "µM"}, {"measurement": "IC50", "setting": "[10]", "value": 0.74, "unit": "µM"}, {"measurement": "body weight", "setting": "[11]", "value": "not affected"}, {"measurement": "open field parameters (velocity, distance, time in regions)", "setting": "[12]", "value": "no significant effect"}, {"measurement": "exploration habits (total time of exploration of objects)", "setting": "[13]; 2N and Ts65Dn mice", "value": "no effect"}, {"measurement": "improvement of memory in novel object recognition", "setting": "[13]; 2N mice", "value": "observed only in Ts65Dn mice"}, {"measurement": "discrimination index", "setting": "[13]; Ts65Dn mice vs Ts65Dn vehicle control, p<0.05", "value": "significantly higher"}]}
{"molecule": "picrotoxin", "values": [{"measurement": "deficits in Ts65Dn hippocampal LTP", "setting": "[14]", "value": "reverse"}]}
